Here are results for four molecules from ChEMBL document CHEMBL1159245, “Antineoplastic agents, 326. The stereochemistry of bastadins 8, 10, and 12 from the Bismarck archipelago marine sponge Ianthella basta” (J Nat Prod, 1995).

Converted amounts (≈) assume the structure as drawn. The source made the active and inactive calls. No cut-off for these calls is given here.

For one data set, the system named is KM-20L2. The experiment in a line: Growth inhibition of human KM20L2 cells. The class given is functional. The conditions noted are these: read-out: ED50 (the source's name).
The next data set has as its system P388. The experiment in a line: Growth inhibition of mouse P388 cells. The class given is functional. The conditions noted are these: read-out: ED50 (the source's name).
The next data set deals with OVCAR-3. The experiment in a line: Growth inhibition of human OVCAR-3 cells. The class given is functional. The conditions noted are these: read-out: ED50 (the source's name).
Data set [1] in a line: Growth inhibition of human SF295 cells. The class given is cell-based, SF-295. The note with it: read-out: ED50 (the source's name).
In the next data set the test system is A498. Nature of the data set: Growth inhibition of human A498 cells. The class given is functional. The conditions noted are these: read-out: ED50 (the source's name).
The next data set relates to NCI-H460. Nature of the data set: Growth inhibition of human NCI-H460 cells. The class given is functional. The conditions noted are these: read-out: ED50 (the source's name).
A further data set relates to SK-MEL-5. Nature of the data set: Growth inhibition of human SK-MEL-5 cells. The class given is functional. The note with it: read-out: ED50 (the source's name).
The next data set deals with Escherichia coli. The experiment in a line: Antibacterial activity against Escherichia coli ATCC 25922 at […] after 16 hrs. The class given is functional, organism-based.
A further data set concerns Neisseria gonorrhoeae. Nature of the data set: Antibacterial activity against Neisseria gonorrhoeae ATCC 49226 at […] after 16 hrs. The class given is functional, organism-based.
In another data set the test system is Enterococcus faecalis. Nature of the data set: Antibacterial activity against Enterococcus faecalis ATCC 29212 assessed per 6 mm disk after 16 hrs. The class given is functional.
The next data set concerns Staphylococcus aureus. Nature of the data set: Antibacterial activity against Staphylococcus aureus ATCC 29213 assessed per 6 mm disk after 16 hrs. The class given is functional.
A further data set concerns Candida albicans. Nature of the data set: Antifungal activity against Candida albicans ATCC 90028 at […] after 42 hrs. The class given is functional, organism-based.
A further data set has as its system Cryptococcus neoformans. The experiment in a line: Antifungal activity against Cryptococcus neoformans ATCC 90112 at […] after 42 hrs. The class given is functional, organism-based.
For a further data set, the system named is Bacillus subtilis. Nature of the data set: Antibacterial activity against Bacillus subtilis. The class given is functional.

On to `O=C1NCCc2cc(Br)c(O)c(c2)Oc2ccc(cc2Br)[C@H](O)CNC(=O)/C(=N/O)Cc2cc(Br)c(O)c(c2)Oc2c(Br)cc(cc2Br)C/C1=N\O` [BASTADIN 8], for which the EC50 in the data set with KM-20L2 was above 10 µg/mL; in the data set with P388 it was 22.6 µg/mL (≈ 21.8 µM); in the data set on OVCAR-3 it was above 10 µg/mL; in the data set with A498, 7 µg/mL (≈ 6.76 µM); in the data set with NCI-H460, above 10 µg/mL; in the data set on SK-MEL-5, 9.9 µg/mL (≈ 9.56 µM). Moreover, the GI50 in [1] was above 10 µg/mL. Also, the result in the data set on Escherichia coli, in the data set on Neisseria gonorrhoeae, in the data set with Candida albicans and with Cryptococcus neoformans was inactive. Also, the MIC with Enterococcus faecalis was below 50 µg; in the data set with Staphylococcus aureus, 0.195 µg.
For the molecule `O=C1NCCc2cc(Br)c(O)c(c2)Oc2ccc(cc2Br)[C@H](O)CNC(=O)/C(=N/O)Cc2cc(Br)c(O)c(c2)Oc2ccc(cc2Br)C/C1=N\O` [BASTADIN 10], the EC50 in the data set on KM-20L2 is 2 µg/mL (≈ 2.09 µM); in the data set with P388, above 10 µg/mL; with OVCAR-3, 2.9 µg/mL (≈ 3.03 µM); in the data set with A498 it was 4.5 µg/mL (≈ 4.71 µM); with NCI-H460, 3.4 µg/mL (≈ 3.56 µM); in the data set with SK-MEL-5 it was 3.7 µg/mL (≈ 3.87 µM). Further, the GI50 in data set [1] amounted to 3.2 µg/mL (≈ 3.35 µM). The result in the data set with Escherichia coli, in the data set on Neisseria gonorrhoeae, with Candida albicans and in the data set on Cryptococcus neoformans was inactive. The MIC was 6.25 µg with Enterococcus faecalis and 1.56 µg with Staphylococcus aureus.
Regarding `O=C1NCCc2cc(Br)c(O)c(c2)Oc2c(Br)cc(cc2Br)[C@H](O)CNC(=O)/C(=N/O)Cc2cc(Br)c(O)c(c2)Oc2ccc(cc2Br)C/C1=N\O` [BASTADIN 12], the EC50 came to 2.1 µg/mL (≈ 2.03 µM) in the data set with KM-20L2; 9.1 µg/mL (≈ 8.79 µM) in the data set on P388; 2 µg/mL (≈ 1.93 µM) in the data set on OVCAR-3; 2.1 µg/mL (≈ 2.03 µM) in the data set on A498; 2.3 µg/mL (≈ 2.22 µM) in the data set with NCI-H460; 2.2 µg/mL (≈ 2.13 µM) in the data set with SK-MEL-5. Further, the GI50 in data set [1] came to 2.4 µg/mL (≈ 2.32 µM). The result in the data set with Escherichia coli, with Neisseria gonorrhoeae, in the data set with Candida albicans and in the data set with Cryptococcus neoformans was inactive. For the same molecule, the MIC in the data set with Enterococcus faecalis was 50 µg; against Staphylococcus aureus, 6.25 µg.
`O=C1NCCc2ccc(c(Br)c2)Oc2cc(ccc2O)CCNC(=O)/C(=N/O)Cc2cc(Br)c(O)c(c2)Oc2c(Br)cc(cc2Br)C/C1=N\O` [BASTADIN 13] gave an MIC in the data set with Bacillus subtilis of 6 µg/mL (≈ 6.38 µM).
